This is an account of results in DBAASP.

Values after ≈ are worked out from the molar mass of the structure shown.

Test systems include Cutibacterium acnes; Clostridium septicum; Fusobacterium nucleatum; Bacteroides fragilis; Bacillus cereus IFO 3514; Candida boidinii MIP 104.
Common to all, as to assay: ≥ marks a high value that may be exact or a test limit, other limits are often not marked, values filed in µg/mL are converted to µM
In assay [1] the test system is Staphylococcus aureus PCM 1944.
Assay [2] deals with Escherichia coli PCM 2057.
For assay [3], the system named is Staphylococcus aureus NCTC 8325.
Assay [4] relates to Peptoniphilus asaccharolyticus ATCC 29743.
The test system of assay [5] is Pseudomonas aeruginosa ATCC 27853.
Assay [6] deals with Staphylococcus aureus T7/20.
In assay [7] the test system is Escherichia coli ATCC 25922.
Assay [8] relates to Enterobacter cloacae HNTCC 53001.
In assay [9] the test system is Klebsiella pneumoniae KK3 9904.
For assay [10], the system named is Clostridium perfringens ATCC 10543.
The subject of assay [11] is Proteus mirabilis ATCC 25933.
Assay [12] concerns Candida albicans ATCC 90028.
Assay [13] has as its system Staphylococcus epidermidis RP62A.
For assay [14], the system named is Prevotella melaninogenica.
In assay [15] the test system is Salmonella enterica subsp. enterica serovar Typhimurium LT2.
For assay [16], the system named is Enterococcus faecalis ATCC 29212.
Assay [17] concerns Cutibacterium acnes ATCC 11828.
Assay [18] has as its system Fusobacterium varium ATCC 27725.
Assay [19] concerns Clostridium tertium ATCC 19465.
Assay [20] has as its system Peptostreptococcus anaerobius.
Assay [21] deals with Bacteroides fragilis ATCC 25285.
In assay [22] the test system is Staphylococcus aureus T27/9.
Assay [23] has as its system Staphylococcus aureus T7/5.
The test system of assay [24] is Staphylococcus aureus CCARM 3543.
The test system of assay [25] is Pseudomonas aeruginosa CCARM 2095.
The test system of assay [26] is Staphylococcus aureus CCARM 3001.
The test system of assay [27] is Salmonella typhimurium KCTC 1926.
In assay [28] the test system is Bacillus subtilis KCTC 3068.
Assay [29] concerns Staphylococcus aureus KCTC 1621.
The subject of assay [30] is Staphylococcus epidermidis KCTC 1917.
The subject of assay [31] is Pseudomonas aeruginosa CCARM 2109.
Assay [32] has as its system Escherichia coli KCTC 1682.
Assay [33] relates to Pseudomonas aeruginosa KCTC 1637.
Assay [34] deals with Geobacillus stearothermophilus IFO12550.
The subject of assay [35] is Enterococcus faecalis JCM 8726.
Assay [36] concerns Salmonella typhimurium IFO 12529.
For assay [37], the system named is Bacillus subtilis IFO 3336.
The test system of assay [38] is Escherichia coli IFO 3301.
The test system of assay [39] is Staphylococcus aureus ATCC 33591.
For assay [40], the system named is Saccharomyces cerevisiae KK4.
Assay [41] has as its system Candida albicans IFO 1385.
Assay [42] has as its system Agrobacterium tumefaciens LBA 4404.
The test system of assay [43] is Kitasatospora kifunensis MN1.
Assay [44] deals with Staphylococcus aureus IFO 13276.
Assay [45] concerns Levilactobacillus brevis IFO 3345.
The subject of assay [46] is Pseudomonas aeruginosa IFO 3445.
Assay [47] has as its system Aspergillus niger IFO 4416.
Assay [48] has as its system Bacillus subtilis ATCC 6633.
The subject of assay [49] is Pseudomonas fluorescens ATCC 13525.
Assay [50] relates to Staphylococcus aureus ATCC 2592.

Take `CC[C@H](C)[C@@H]1NC(=O)[C@H](CO)NC(=O)[C@H](CCCCN)NC(=O)[C@@H](N)CSSC[C@@H](C(=O)O)NC(=O)[C@H](Cc2ccccc2)NC1=O` [CKSIFC]: the MIC in assay [1] and in [2] was at least 1430 µM in each case.

Regarding `CC[C@H](C)[C@H](NC(=O)[C@H](CO)NC(=O)[C@H](CO)NC(=O)[C@H](CC(C)C)NC(=O)[C@@H](N)Cc1ccccc1)C(=O)NCC(=O)N[C@@H](CCCCN)C(=O)N[C@H](C(=O)N[C@@H](CC(C)C)C(=O)NCC(=O)N[C@@H](CC(N)=O)C(=O)N[C@@H](CC(C)C)C(=O)N[C@@H](CC(C)C)C(N)=O)[C@@H](C)CC` [FLSSIGKILGNLL], the MIC in assay [3] is 10 µM (≈ 13.7 µg/mL); in the assay on Cutibacterium acnes, 12.5 µM (≈ 17.2 µg/mL); in assay [4], at least 50 µM; in assay [5], 160 µM (≈ 220 µg/mL); in assay [6], 20 µM (≈ 27.5 µg/mL); against Clostridium septicum it was at least 50 µM. The MIC is 40 µM (≈ 54.9 µg/mL) in assay [7]; at least 40 µM in assay [8]; at least 80 µM in [9]; 25 µM (≈ 34.3 µg/mL) in [10]; at least 100 µM in assay [11]; at least 160 µM in assay [12]. Moreover, the MIC is 20 µM (≈ 27.5 µg/mL) in assay [13]; 25 µM (≈ 34.3 µg/mL) in assay [14]; at least 50 µM in [15]; 40 µM (≈ 54.9 µg/mL) in [16]; 6 µM (≈ 8.24 µg/mL) in [17]; at least 50 µM against Fusobacterium nucleatum. The MIC is at least 50 µM in assay [18]; 12.5 µM (≈ 17.2 µg/mL) in assay [19]; 25 µM (≈ 34.3 µg/mL) in assay [20]; at least 50 µM in assay [21]; at least 40 µM in assay [22]; at least 50 µM against Bacteroides fragilis. The compound further registered an MIC in [23] of 20 µM (≈ 27.5 µg/mL).

Turning to `CC(C)C[C@H](NC(=O)[C@H](Cc1c[nH]c2ccccc12)NC(=O)[C@H](CCCCN)NC(=O)[C@H](CC(C)C)NC(=O)[C@H](Cc1c[nH]c2ccccc12)NC(=O)[C@H](CC(C)C)NC(=O)[C@H](CCCCN)NC(=O)[C@H](Cc1c[nH]c2ccccc12)NC(=O)[C@H](CC(C)C)NC(=O)[C@@H](N)CCCCN)C(=O)N[C@@H](CCCCN)C(N)=O` [KLWKLWLKWLK], the MIC worked out at 4 µM (≈ 6.16 µg/mL) in [24]; 16 µM (≈ 24.7 µg/mL) in assay [25]; 8 µM (≈ 12.3 µg/mL) in assay [26]; 2 µM (≈ 3.08 µg/mL) in assay [27]; 4 µM (≈ 6.16 µg/mL) in assay [28]; 2 µM (≈ 3.08 µg/mL) in assay [29]. Further, the MIC in assay [30] was 4 µM (≈ 6.16 µg/mL); in assay [31], 16 µM (≈ 24.7 µg/mL); in [32] it was 4 µM (≈ 6.16 µg/mL); in assay [33], 4 µM (≈ 6.16 µg/mL).

Take `NC(N)=NCCC[C@H](NC(=O)[C@H](Cc1cnc[nH]1)NC(=O)[C@H](CCCN=C(N)N)NC(=O)[C@H](Cc1cnc[nH]1)NC(=O)[C@H](CCCN=C(N)N)NC(=O)[C@H](Cc1cnc[nH]1)NC(=O)[C@H](CCCN=C(N)N)NC(=O)[C@H](Cc1cnc[nH]1)NC(=O)[C@@H](N)CCCN=C(N)N)C(=O)N[C@@H](Cc1cnc[nH]1)C(=O)O` [RHRHRHRHRH]: the MIC in [34] is 6.74 µM (≈ 10 µg/mL); in [35], 6.74 µM (≈ 10 µg/mL); in [36], at least 101 µM; in assay [37], 6.74 µM (≈ 10 µg/mL); in assay [38], 6.74 µM (≈ 10 µg/mL); in assay [39], at least 33.7 µM. The minimal inhibitory concentration (MIC) in the assay with Bacillus cereus IFO 3514 is at least 269 µM; in assay [40], at least 67.4 µM; in assay [41] it was at least 67.4 µM; in assay [42], 6.74 µM (≈ 10 µg/mL); in the assay with Candida boidinii MIP 104 it was 6.74 µM (≈ 10 µg/mL); in assay [43], at least 269 µM. In addition, the MIC was at least 33.7 µM in [44], 6.74 µM (≈ 10 µg/mL) in [45], 6.74 µM (≈ 10 µg/mL) in assay [46] and at least 33.7 µM in assay [47].

`CC[C@H](C)[C@H](NC(=O)[C@H](CCCCN)NC(=O)[C@H](CC(C)C)NC(=O)[C@H](Cc1ccccc1)NC(=O)[C@H](CO)NC(=O)[C@H](CC(C)C)NC(=O)[C@H](Cc1ccccc1)NC(=O)[C@H](CCCN=C(N)N)NC(=O)[C@H](CO)NC(=O)[C@H](CC(C)C)NC(=O)[C@@H](N)CO)C(=O)N[C@H](C(=O)N[C@@H](Cc1ccc(O)cc1)C(=O)N1CCC[C@H]1C(=O)N1CCC[C@H]1C(=O)N[C@@H](C)C(=O)N[C@@H](Cc1ccccc1)C(N)=O)C(C)C` [SLSRFLSFLKIVYPPAF]: the MIC in [48] was 25.2 µM (≈ 50 µg/mL); in assay [49], at least 50.4 µM; in assay [50] it was 25.2 µM (≈ 50 µg/mL).
